Assay results from paper PMC4197335, “Cancer-Selective Targeting of the NF-κB Survival Pathway with GADD45β/MKK7 Inhibitors” (Cancer Cell, 2014).
Where a SMILES comes first, the peptide text is derived from it. [ ]: non-standard residue; d: D form. The star is where a group is joined. Cbz = O=C(OCc1ccccc1)*

Experiments:
[1] = biological target: T1, GADD45β/MKK7 complex (Homo sapiens, UniProt O14733); assay: ELISA GADD45β/MKK7 competition assay; format: binding; settings: for inhibition at 0.01 µM / IC50: Table S3; for inhibition at 0.01 µM: peptide at 10 nM, read-out: % inhibition (ELISA); for IC50: read-out: IC50 (ELISA); for % inhibition (ELISA): Table S2, peptide at 42 nM
T1 construct: Full-length human (h)MKK7 was expressed as a protein fused to an N-terminal GST tag (GST-MKK7); made in house
T1 sequence (O14733 1-419): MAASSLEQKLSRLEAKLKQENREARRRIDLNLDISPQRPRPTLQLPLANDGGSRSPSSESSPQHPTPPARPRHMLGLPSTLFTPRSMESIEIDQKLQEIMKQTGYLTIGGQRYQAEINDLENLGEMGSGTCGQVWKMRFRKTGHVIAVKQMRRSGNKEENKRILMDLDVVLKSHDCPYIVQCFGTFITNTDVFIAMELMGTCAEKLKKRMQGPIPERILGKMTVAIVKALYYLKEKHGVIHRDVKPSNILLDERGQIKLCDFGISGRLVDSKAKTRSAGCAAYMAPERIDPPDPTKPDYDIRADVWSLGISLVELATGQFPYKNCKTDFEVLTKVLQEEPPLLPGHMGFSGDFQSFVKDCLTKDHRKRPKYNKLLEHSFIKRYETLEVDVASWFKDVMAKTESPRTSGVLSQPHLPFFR
Source text: Additional details are provided in Supplemental Experimental Procedures.
(1:1,000) and the HRP chromogenic substrate, o -phenylenediamine (OPD). GST -coated wells wer e […]
The ELISA competition screen used f or the isolation of antagonists of the GADD45β /MKK7 […]
The library deconvolution strategy used for this screen was described previously […]
General information about this type of screens can be found elsewhere […]
Values were expressed as the percentage of inhibition of His6-hGADD45β binding to GST-hMKK7 relative to the binding measured in the absence of […]
Dose-response, ELISA GADD45β /MKK7 competition assays were carried out under similar […]
As part of the SAR analysis and lead optimization process, where appropriate, competitors were tested at a concentration up to 100 nM. In order to determine their stability in biolog ical f luids , peptides were incubated at the concentration of 10 µM in […]
calculated using at least 7 concentrations of peptide and def ined as the mean concentration of peptide […]
the absence of competitor. W here indicated, values were expressed as the percentage of inhibition of His 6 -hGADD45β binding to GST-hMKK7 relative to the binding measured in the absence of competitor.
GST was used as a control in all the experiments. […]
tetrapeptide used as negative control in some of the ELISA and cellular assays was as f ollows: z -DNC, z-T yr -Asp-His-Gln-NH 2 . […]

[2] = tested on: U266 MM cells; settings: read-out: IC50 (U266 cells); Table S3; day 6; [3H]thymidine incorporation or trypan blue exclusion
[3] = pharmacokinetics after single intravenous injection
Protocol: The pharmacokinetic analyses of DTP3 and z-DTP2 were outsourced. Additional details are provided in Supplemental Experimental Procedures. […]
Pharmacokinetic Anal yses
In vitro and in vivo pharmacok inetic analyses were outsourced to Cypr ot ex (http://www.c yprotex.com/home/) (Figure 7A, Tables S6). In vitro pharmacok inetic assays were perf ormed according to established, in- house protocols and included: plasma stability (human), thermodynamic solubility (PBS pH 7.4, at 37 °C f or 14 days), microsomal stability (human), plasma protein binding (PPB; mouse and human), and distribution coeff icient (LogD). In vivo pharmacok inetic […]
analyses were also perf ormed at Cyprotex according to established, in- house protocols. Brief ly, the peptides were dissolved in PBS and administered by single intravenous injection t o CD1 male mice at the dose of 10 mg/kg (25 -30 g of total body weight; n=3 mice per time point per compound) . Blood samples were collected in heparinized tubes at up to 7 tim e points after this injection (i.e. 0.08, 0.25, 0.5, 1, 2, 4 and 8 hr), and the plasma concentrations of the test peptide were determined at each time point by LC-MS/ MS, using a f ive- point standard curve covering a peptide concentration range from 3 to 3,000 ng/mL. Standard curves were prepared using blank plasma matrices and treated in the same manner as the test samples. The main pharmacok inetic parameters determined in these analyses were: terminal half-lif e (t 1/2 ), plasma clearance (CL), volume of distribution (V d ), and area under the plasma concentration versus time curve (AUC) (Figure 7A, Table S6). Values were calculated from the data of the peptide plasma concentration versus time curves using a non-compartmental model analysis, as described elsewhere (Groulx, 2006; Landaw and Di Stef ano 3rd, 1982) . […]

Molecule	inhibition at 0.01 µM [1]	% inhibition (ELISA) [1]	further results
CCCCCCCCCCCCCC(=O)N[C@H](Cc1ccc(O)cc1)C(=O)N[C@H](CC(=O)O)C(=O)N[C@H](Cc1c[nH]cn1)C(=O)N[C@H](CCC(N)=O)C(N)=O [Myr-YDHQ-NH2]	28%	–	IC50 [1]: > 10 nM; IC50 [2]: > 10000 nM
CCCCCCCCCCCCCC(=O)N[C@H](Cc1ccc(O)cc1)C(=O)N[C@H](CCC(=O)O)C(=O)N[C@H](CCCNC(=N)N)C(=O)N[C@H](Cc1ccccc1)C(N)=O [Myr-YERF-NH2]	37%	–	IC50 [1]: > 10 nM; IC50 [2]: > 10000 nM
NC(=O)CC[C@@H](NC(=O)[C@@H](Cc1c[nH]cn1)NC(=O)[C@@H](CC(=O)O)NC(=O)[C@@H](Cc1ccc(O)cc1)NC(=O)OCc1ccccc1)C(N)=O [z-DNC, z-YDHQ-NH2] (Cbz-[dY][dD][dH][dQ]-NH2)	12%	–	–
NC(=O)[C@@H](Cc1ccccc1)NC(=O)[C@@H](Cc1c[nH]cn1)NC(=O)[C@@H](CC(=O)O)NC(=O)[C@@H](Cc1ccc(O)cc1)NC(=O)OCc1ccccc1 [z-DTP1, z-YDHF-NH2] (Cbz-[dY][dD][dH][dF]-NH2)	84%	–	–
N=C(N)NCCC[C@@H](NC(=O)[C@@H](CCC(=O)O)NC(=O)[C@@H](Cc1ccc(O)cc1)NC(=O)OCc1ccccc1)C(=O)N[C@H](Cc1ccccc1)C(N)=O [z-DTP2, z-YERF-NH2] (Cbz-[dY][dE][dR][dF]-NH2)	95%	–	predicted dose required to achieve the therapeutic plasma concentration of 1 μM at the steady state ([3]; k0 = k1 x Vd x Cp): 3.61 mg/kg/h; AUC ([3]; mouse, in vivo, iv, 10 mg/kg): 2060 ± 250 ng·h/mL; Vd ([3]; mouse, in vivo, iv, 10 mg/kg): 14.6 ± 2.23 L/kg; clearance ([3]; mouse, in vivo, iv, 10 mg/kg): 78.1 ± 11.7 mL/min/kg; half-life ([3]; mouse, in vivo, iv, 10 mg/kg): 2.09 ± 0.07 h
COC(=O)C[C@@H](NC(=O)[C@@H](Cc1ccc(O)cc1)NC(=O)OCc1ccccc1)C(=O)N[C@H](Cc1c[nH]cn1)C(=O)N[C@H](Cc1ccccc1)C(N)=O [z-YD(O-methyl)HF-NH2] (Cbz-[dY][dD](OMe)[dH][dF]-NH2)	84%	–	IC50 [1]: > 10 nM
COC(=O)C[C@@H](NC(=O)[C@@H](Cc1ccc(O)cc1)NC(=O)OCc1ccccc1)C(=O)N[C@H](Cc1c[nH]cn1)C(=O)N[C@H](CCC(N)=O)C(N)=O [z-YD(O-methyl)HQ-NH2] (Cbz-[dY][dD](OMe)[dH][dQ]-NH2)	3%	–	IC50 [1]: > 10 nM
Ac-WDHW-NH2	–	50%	–
Ac-WDRF-NH2	–	45%	–
Ac-WEHF-NH2	–	35%	–
Ac-YDHW-NH2	–	57%	–
Ac-YDKF-NH2	–	34%	–
Ac-YDRF-NH2	–	45%	–
Ac-YDRW-NH2	–	43%	–
Ac-YEHF-NH2	–	52%	–
Ac-YERW-NH2	–	27%	–
